Laboratory results: US20240158446A1, “CYCLIC COMPOUND HAVING SELECTIVE INHIBITORY ACTION ON KRAS OVER HRAS AND NRAS” (CHUGAI SEIYAKU KABUSHIKI KAISHA, priority 2021, published 2024)
pIC50, pKd: −log10 of the molar value. Where two headings read alike, the source gives them in different places.

Columns and labels:
[1] = biological target: GDP-bound KRAS wild-type protein (Homo sapiens, UniProt P01116); experiment: Binding to KRAS by surface plasmon resonance (SPR), Single Cycle Kinetics; settings: SPR, Single Cycle Kinetics, GDP-bound KRAS wild-type protein; read-out: KRAS KD
Chain of GDP-bound KRAS wild-type protein (P01116 whole entry): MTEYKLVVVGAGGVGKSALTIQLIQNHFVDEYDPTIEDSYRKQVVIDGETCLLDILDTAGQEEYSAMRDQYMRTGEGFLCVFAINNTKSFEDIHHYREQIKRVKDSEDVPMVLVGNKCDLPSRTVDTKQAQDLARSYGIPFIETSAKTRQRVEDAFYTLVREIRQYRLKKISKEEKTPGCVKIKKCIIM

[2] = tested on: human lung cancer strain NCI-H441;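 further: cell proliferation inhibition after four days measured by CellTiter-Glo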
[3] = biological target: GDP-bound HRAS wild-type protein (Homo sapiens, UniProt P01112); experiment: Binding to HRAS by surface plasmon resonance (SPR), Single Cycle Kinetics; settings: SPR; for HRAS/KRAS (ratio of KD value for HRAS to KD value for KRAS): GDP-bound HRAS wild-type protein vs GDP-bound KRAS wild-type protein
Chain of GDP-bound HRAS wild-type protein (P01112 whole entry): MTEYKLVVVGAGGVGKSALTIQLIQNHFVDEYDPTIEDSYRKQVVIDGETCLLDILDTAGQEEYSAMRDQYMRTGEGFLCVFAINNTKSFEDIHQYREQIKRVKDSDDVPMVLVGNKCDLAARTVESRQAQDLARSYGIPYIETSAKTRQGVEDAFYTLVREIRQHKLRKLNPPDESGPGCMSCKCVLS

[4] = biological target: GDP-bound NRAS wild-type protein (Homo sapiens, UniProt P01111); experiment: Binding to NRAS by surface plasmon resonance (SPR), Single Cycle Kinetics; settings: SPR; for NRAS/KRAS (ratio of KD value for NRAS to KD value for KRAS): GDP-bound NRAS wild-type protein vs GDP-bound KRAS wild-type protein
Chain of GDP-bound NRAS wild-type protein (P01111 whole entry): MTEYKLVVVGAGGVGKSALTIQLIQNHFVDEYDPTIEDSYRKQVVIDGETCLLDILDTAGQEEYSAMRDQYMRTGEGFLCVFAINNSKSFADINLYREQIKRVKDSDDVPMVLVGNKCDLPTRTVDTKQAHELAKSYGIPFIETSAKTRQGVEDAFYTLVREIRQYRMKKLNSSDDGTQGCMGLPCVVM

[5] = read-out: NCI-H441 cell proliferation inhibitory activity, 50% proliferation inhibitory concentration (IC50 value), NCI-H441, four days, CellTiter-Glo

Row | Compound | pKd [1] | pIC50 [2] | HRAS/KRAS (ratio of KD value for HRAS to KD value for KRAS) [3] | NRAS/KRAS (ratio of KD value for NRAS to KD value for KRAS) [4] | pIC50 [2, 5] | ratio of the KD value with respect to GDP-bound HRAS wild-type protein to the KD value with respect to KRAS [3] | ratio of the KD value with respect to GDP-bound NRAS wild-type protein to the KD value with respect to KRAS [4]
1 | CC[C@H](C)[C@@H]1NC(=O)[C@@H]2CCC/C=C/c3ccc(cc3)C[C@@H](C(=O)N(C)CC(=O)N[C@@H](CCc3ccc(Cl)c(Cl)c3)C(=O)N3C[C@H](OC4CCC4)C[C@H]3C(=O)NC3(CC(C)(C)C3)C(=O)N(C)[C@@H](C3CCCC3)C(=O)N(C)[C@H](C(=O)N(C)CC)CC(=O)N2C)N2CC/C=C\C[C@@H](C2=O)N(C)C(=O)CN(C)C1=O [PP3058] | 9.68 | 7.67 | A (a compound having 10 or more and less than 20 is denoted as A) | A (a compound having 10 or more and less than 20 is denoted as A) |  |  | 
2 | CCO[C@@H]1C[C@H]2C(=O)N(C)C3(CC(C)(C)C3)C(=O)N(C)[C@@H](C3CCCC3)C(=O)N(C)[C@H](C(=O)N(C)C)CC(=O)N(C)[C@H]3CCC/C=C/c4ccc(cc4)C[C@@H](C(=O)N(C)CC(=O)N[C@@H](CCc4ccc(Cl)c(Cl)c4)C(=O)N2C1)N1CC/C=C\C[C@@H](C1=O)N(C)C(=O)CN(C)C(=O)[C@H]([C@@H](C)CC)NC3=O [PP3059] | 10.26 | 8.68 | A (a compound having 10 or more and less than 20 is denoted as A) | A (a compound having 10 or more and less than 20 is denoted as A) |  |  | 
3 | CCO[C@@H]1C[C@H]2C(=O)N(C)C3(CC(C)(C)C3)C(=O)N(C)[C@@H](C3CCCC3)C(=O)N(C)[C@H](C(=O)N(C)C)CC(=O)N(C)[C@H]3CCC/C=C/c4ccc(cc4)C[C@@H](C(=O)N(C)CC(=O)N[C@@H](CCc4ccc(Cl)c(Cl)c4)C(=O)N2C1)N1CC/C=C\C[C@@H](C1=O)N(C)C(=O)CN(C1CC1)C(=O)[C@H]([C@@H](C)CC)NC3=O [PP3061] | 9.89 | 8.36 | A (a compound having 10 or more and less than 20 is denoted as A) | A (a compound having 10 or more and less than 20 is denoted as A) |  |  | 
4 | CC[C@H](C)[C@@H]1NC(=O)[C@@H]2CCCCCc3ccc(cc3)C[C@@H](C(=O)N(C)CC(=O)N[C@@H](CCc3ccc(C(F)(F)F)c(OC)c3)C(=O)N3C[C@H](OC(C)C)C[C@H]3C(=O)NC3(CC(C)(C)C3)C(=O)N(C)[C@@H](C3CCCC3)C(=O)N(C)[C@H](C(=O)N(C)C)CC(=O)N2C)N2CC/C=C\C[C@@H](C2=O)N(C)C(=O)CN(C)C1=O [PP3072] | 10.32 |  | B (a compound having 3 or more and less than 10 is denoted as B) | A (a compound having 10 or more and less than 20 is denoted as A) | 8.59 | B (a compound having 3 or more and less than 10 is denoted as B) | A (a compound having 10 or more and less than 20 is denoted as A)
5 | CC[C@H](C)[C@@H]1NC(=O)[C@@H]2CCCCCc3ccc(cc3)C[C@@H](C(=O)N(C)CC(=O)N[C@@H](CCc3ccc(C(F)(F)F)c(OC)c3)C(=O)N3C[C@H](OC4CCC4)C[C@H]3C(=O)NC3(CC(C)(C)C3)C(=O)N(C)[C@@H](C3CCCC3)C(=O)N(C)[C@H](C(=O)N(C)C)CC(=O)N2C)N2CC/C=C\C[C@@H](C2=O)N(C)C(=O)CN(C)C1=O [PP3073] | 10.60 |  | A (a compound having 10 or more and less than 20 is denoted as A) | A (a compound having 10 or more and less than 20 is denoted as A) | 8.72 | A (a compound having 10 or more and less than 20 is denoted as A) | A (a compound having 10 or more and less than 20 is denoted as A)
6 | CC[C@H](C)[C@@H]1NC(=O)[C@@H]2CCCCCc3ccc(cc3)C[C@@H](C(=O)N(C)CC(=O)N[C@@H](CCc3ccc(C(F)(F)F)c(OC)c3)C(=O)N3CC4(CC4)C[C@H]3C(=O)NC3(CC(C)(C)C3)C(=O)N(C)[C@@H](C3CCCC3)C(=O)N(C)[C@H](C(=O)N(C)C)CC(=O)N2C)N2CC/C=C\C[C@@H](C2=O)N(C)C(=O)CN(C)C1=O [PP3074] | 10.60 |  | A (a compound having 10 or more and less than 20 is denoted as A) | A (a compound having 10 or more and less than 20 is denoted as A) | 8.62 | A (a compound having 10 or more and less than 20 is denoted as A) | A (a compound having 10 or more and less than 20 is denoted as A)
7 | CCO[C@@H]1C[C@H]2C(=O)NC3(CC(C)(C)C3)C(=O)N(C)[C@@H](C3CCCC3)C(=O)N(C)[C@H](C(=O)N(C)C)CC(=O)N(C)[C@H]3CCCCCc4ccc(cc4)C[C@@H](C(=O)N(C)CC(=O)N[C@@H](CCc4ccc(C(F)(F)F)c(OC)c4)C(=O)N2C1)N1CC/C=C\C[C@@H](C1=O)N(C)C(=O)CN(C1CC1)C(=O)[C@H]([C@@H](C)CC)NC3=O [PP3075] | 10.12 |  | A (a compound having 10 or more and less than 20 is denoted as A) | A (a compound having 10 or more and less than 20 is denoted as A) | 8.96 | A (a compound having 10 or more and less than 20 is denoted as A) | A (a compound having 10 or more and less than 20 is denoted as A)
8 | CCO[C@@H]1C[C@H]2C(=O)NC3(CC(C)(C)C3)C(=O)N(C)[C@@H](C3CCCC3)C(=O)N(C)[C@H](C(=O)N(C)C)CC(=O)N(C)[C@H]3CCCCCc4ccc(cc4)C[C@@H](C(=O)N(C)CC(=O)N[C@@H](CCc4ccc(Cl)c(Cl)c4)C(=O)N2C1)N1CC/C=C\C[C@@H](C1=O)N(C)C(=O)CN(C)C(=O)[C@H]([C@@H](C)CC)NC3=O [PP3076] | 10.23 |  | A (a compound having 10 or more and less than 20 is denoted as A) | AA (a compound having 20 or more is denoted as AA) | 8.39 | A (a compound having 10 or more and less than 20 is denoted as A) | AA (a compound having 20 or more is denoted as AA)
9 | CCCO[C@@H]1C[C@H]2C(=O)NC3(CC(C)(C)C3)C(=O)N(C)[C@@H](C3CCCC3)C(=O)N(C)[C@H](C(=O)N(C)C)CC(=O)N(C)[C@H]3CCCCc4ccc(cc4)C[C@@H](C(=O)N(C)CC(=O)N[C@@H](CCc4ccc(C(F)(F)F)c(OC)c4)C(=O)N2C1)N1CC/C=C\C[C@@H](C1=O)N(C)C(=O)CN(C)C(=O)[C@H]([C@@H](C)CC)NC3=O [PP3077] | 10.40 |  | B (a compound having 3 or more and less than 10 is denoted as B) | A (a compound having 10 or more and less than 20 is denoted as A) | 9.10 | B (a compound having 3 or more and less than 10 is denoted as B) | A (a compound having 10 or more and less than 20 is denoted as A)
